Reference: patent US8143293B2, “Kinase inhibitors useful for the treatment of myleoprolific diseases and other proliferative diseases” (Deciphera Pharmaceuticals, LLC, priority 2007, dated 2012)

Tests used:
[1] = target: T1, T315I Abl kinase (SEQ ID NO:2) (Homo sapiens, UniProt P00519, T315I); assay: T315I Abl kinase (SEQ ID NO:2) assay, pyruvate kinase/lactate dehydrogenase coupled; conditions: 1 h preincubation, ATP 500 μM; read-out: Biochemical IC50, Abl T315I Enzyme Assay
T1 construct: purchased deCode Genetics
T1 sequence (P00519 with tags, fused parts or gaps T315I): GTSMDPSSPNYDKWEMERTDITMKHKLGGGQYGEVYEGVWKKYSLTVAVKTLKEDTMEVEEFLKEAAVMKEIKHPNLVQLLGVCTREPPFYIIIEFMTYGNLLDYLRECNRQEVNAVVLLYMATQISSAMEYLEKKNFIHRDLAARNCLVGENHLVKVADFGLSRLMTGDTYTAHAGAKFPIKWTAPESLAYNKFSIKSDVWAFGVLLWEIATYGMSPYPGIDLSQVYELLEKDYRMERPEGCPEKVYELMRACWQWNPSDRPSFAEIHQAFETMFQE
Experimental: Abl Kinase (SEQ ID NO:2) Assay
Activity of T315I Abl kinase (SEQ ID NO:2) was determined by following the production of ADP from the kinase reaction through coupling with the pyruvate kinase/lactate dehydrogenase system (e.g., Schindler, et al. Science (2000) 289, 1938-1942). In this assay, the oxidation of NADH (thus the decrease at A340 nm) was continuously monitored spectrophometrically. The reaction mixture (100 μl) contained Abl kinase (4.4 nM, […] Abl from deCode Genetics), peptide substrate (EAIYAAPFAKKK, 0.2 mM), MgCl2 (10 mM), pyruvate kinase (4 units), lactate dehydrogenase (0.7 units), phosphoenol pyruvate (1 mM), and NADH (0.28 mM) in 90 mM Tris buffer containing 0.2% octyl-glucoside and 1% DMSO, pH 7.5. Test compounds were incubated with T315I Abl (SEQ ID NO:2) and other reaction reagents at 30° C. for 1 h before ATP (500 μM) was added to start the reaction. The absorption at 340 nm was monitored continuously for 2 hours at 30° C. on Polarstar Optima plate reader (BMG). The reaction rate was calculated using the 1.0 to 2.0 h time frame. Percent inhibition was obtained by comparison of reaction rate with that of a control (i.e. with no test compound). IC50 values were calculated from a series of percent inhibition values determined at a range of inhibitor concentrations using software routines as implemented in the GraphPad Prism software package.

[2] = target: T2, C-Met kinase (SEQ ID NO:10) (Homo sapiens, UniProt P08581); assay: C-Met kinase (SEQ ID NO:10) assay, pyruvate kinase/lactate dehydrogenase coupled; conditions: 0.5 h preincubation, ATP 100 μM; read-out: Biochemical IC50, c-Met Enzyme Assay
T2 construct: 956-1390, from Invitrogen, catalogue #PV3143; His6 (N-terminal leader MSYYHHHHHH... with TEV and thrombin sites) (N); purchased Invitrogen PV3143
T2 sequence (P08581 with tags, fused parts or gaps): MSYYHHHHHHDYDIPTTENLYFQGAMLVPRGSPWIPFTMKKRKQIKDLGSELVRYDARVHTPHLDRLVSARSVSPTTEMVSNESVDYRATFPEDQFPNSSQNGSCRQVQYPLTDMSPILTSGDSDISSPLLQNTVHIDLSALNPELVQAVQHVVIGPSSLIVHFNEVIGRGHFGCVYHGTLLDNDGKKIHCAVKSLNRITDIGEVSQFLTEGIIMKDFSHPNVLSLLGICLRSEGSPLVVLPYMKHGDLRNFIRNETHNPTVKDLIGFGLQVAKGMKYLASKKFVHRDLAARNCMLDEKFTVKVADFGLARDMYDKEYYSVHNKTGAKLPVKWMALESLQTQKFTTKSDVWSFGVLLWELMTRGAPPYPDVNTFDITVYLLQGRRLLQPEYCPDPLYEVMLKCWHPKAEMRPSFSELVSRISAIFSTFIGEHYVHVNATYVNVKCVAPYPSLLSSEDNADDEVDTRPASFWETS
Experimental: C-Met Kinase (SEQ ID NO:10) Assay
Activity of C-Met kinase (SEQ ID NO:10) was determined by following the production of ADP from the kinase reaction through coupling with the pyruvate kinase/lactate dehydrogenase system (e.g., Schindler, et al. Science (2000) 289, 1938-1942). In this assay, the oxidation of NADH (thus the decrease at A340 nm) was continuously monitored spectrophometrically. The reaction mixture (100 μl) contained C-Met (c-Met residues; 956-1390, from Invitrogen, catalogue #PV3143, […]), polyE4Y (1 mg/ml), MgCl2 (10 mM), pyruvate kinase (4 units), lactate dehydrogenase (0.7 units), phosphoenol pyruvate (1 mM), and NADH (0.28 mM) in 90 mM Tris buffer containing 0.25 mM DTT, 0.2% octyl-glucoside and 1% DMSO, pH 7.5. Test compounds were incubated with C-Met (SEQ ID NO:10) and other reaction reagents at 22° C. for 0.5 h before ATP (100 μM) was added to start the reaction. The absorption at 340 nm was monitored continuously for 2 hours at 30° C. on Polarstar Optima plate reader (BMG). The reaction rate was calculated using the 1.0 to 2.0 h time frame. Percent inhibition was obtained by comparison of reaction rate with that of a control (i.e. with no test compound). IC50 values were calculated from a series of percent inhibition values determined at a range of inhibitor concentrations using software routines as implemented in the GraphPad Prism software package.

[3] = target: T3, BaF3 cells transfected with wild type p210 BCR-Abl (Homo sapiens, UniProt P00519); assay: Ba/F3 p210 whole cell proliferation assay; assay type: cell-based; conditions: 72 hours, Cell Titer Blue; read-out: Whole Cell Antiproliferation IC50, Ba/F3 p210 whole cell proliferation assay
T3 construct: fused on or other part: P11274 (Breakpoint cluster region protein)

[4] = target: T4, BaF3 cells transfected with T315I p210 BCR-Abl (Homo sapiens, UniProt P00519, T315I, cells depend on it); assay: Ba/F3 p210 T315I whole cell proliferation assay; assay type: cell-based; conditions: 72 hours, Cell Titer Blue; read-out: Whole Cell Antiproliferation IC50, Ba/F3 p210 T315I whole cell proliferation assay
T4 construct: fused on or other part: P11274 (Breakpoint cluster region protein)

Compound	IC50 [1] [nM]	IC50 [2] [nM]	GI50 [3] [nM]	GI50 [4] [nM]
CN(C)CCn1nc(C(C)(C)C)cc1NC(=O)Nc1ccc(Oc2ccnc(-c3cnn(C)c3)c2)cc1F [Example 12, 1-(3-tert-butyl-1-(2-(dimethylamino)ethyl)-11H-pyrazol-5-yl)-3-(2-fluoro-4-(2-(1-methyl-1H-pyrazol-4-yl)pyridin-4-yloxy)phenyl)urea]	< 100	< 10000	< 100	< 100
Cn1cc(-c2cc(Oc3ccc(NC(=O)Nc4cncc(C(F)(F)F)c4)c(F)c3)ccn2)cn1 [Example 21, 1-(2-fluoro-4-(2-(1-methyl-1H-pyrazol-4-yl)pyridin-4-yloxy)phenyl)-3-(5-(trifluoromethyl)pyridin-3-yl)urea]	< 100	< 1000	< 100	< 100
Cc1oc(C(C)(C)C)cc1NC(=O)Nc1ccc(Oc2ccnc(-c3cnn(C)c3)c2)cc1F [Example 28, 1-(5-tert-butyl-2-methylfuran-3-yl)-3-(2-fluoro-4-(2-(1-methyl-1H-pyrazol-4-yl)pyridin-4-yloxy)phenyl)urea]	< 100	< 10000	< 100	< 1000
Cn1cc(-c2cc(Oc3ccc(NC(=O)Nc4cnn(C5CCCC5)c4)c(F)c3)ccn2)cn1 [Example 15, 1-(1-cyclopentyl-1H-pyrazol-4-yl)-3-(2-fluoro-4-(2-(1-methyl-1H-pyrazol-4-yl)pyridin-4-yloxy)phenyl)urea]	< 100	< 10000	< 100	< 100
Cn1cc(-c2cc(Oc3ccc(NC(=O)Nc4cc(C(C)(C)C)nn4C)c(F)c3)ccn2)cn1 [Example 2, 1-(3-t-butyl-1-methyl-1H-pyrazol-5-yl)-3-(2-fluoro-4-(2-(1-methyl-1H-pyrazol-4-yl)pyridin-4-yloxy)phenyl)urea]	< 100	< 1000	< 100	< 100
Cn1cc(-c2cc(Oc3ccc(NC(=O)Nc4cc(C(C)(C)C)no4)c(F)c3)ccn2)cn1 [Example 1, 1-(3-t-butylisoxazol-5-yl)-3-(2-fluoro-4-(2-(1-methyl-1H-pyrazol-4-yl)pyridin-4-yloxy)phenyl)urea]	< 100	< 1000	< 100	< 100
Cc1c(NC(=O)Nc2ccc(Oc3ccnc(-c4cnn(C)c4)c3)cc2F)cnn1C(C)(C)C [Example 10, 1-(1-tert-butyl-5-methyl-1H-pyrazol-4-yl)-3-(2-fluoro-4-(2-(1-methyl-1H-pyrazol-4-yl)pyridin-4-yloxy)phenyl)urea]	< 10000	< 10000	< 100	< 1000
Cn1cc(-c2cc(Oc3ccc(NC(=O)Nc4cc(C(C)(C)C)no4)c(F)c3F)ccn2)cn1 [Example 25, 1-(3-tert-butylisoxazol-5-yl)-3-(2,3-difluoro-4-(2-(1-methyl-1H-pyrazol-4-yl)pyridin-4-yloxy)phenyl)urea]	< 100	< 100	< 100	< 100
CC(C)c1cncc(NC(=O)Nc2ccc(Oc3ccnc(-c4cnn(C)c4)c3)cc2F)c1 [Example 22, 1-(2-fluoro-4-(2-(1-methyl-1H-pyrazol-4-yl)pyridin-4-yloxy)phenyl)-3-(5-isopropylpyridin-3-yl)urea]	< 100	< 1000	< 100	< 100
Cn1cc(-c2cc(Oc3ccc(NC(=O)Nc4cnn(C(C)(C)C)c4)c(F)c3F)ccn2)cn1 [Example 8, 1-(1-tert-butyl-1H-pyrazol-4-yl)-3-(2,3-difluoro-4-(2-(1-methyl-1H-pyrazol-4-yl)pyridin-4-yloxy)phenyl)urea]	< 100	< 1000	< 100	< 100
Cn1cc(-c2cc(Oc3ccc(NC(=O)Nc4cc(C(F)(F)F)cnc4-c4cnn(C)c4)c(F)c3)ccn2)cn1 [Example 42, 1-(2-fluoro-4-(2-(1-methyl-1H-pyrazol-4-yl)pyridin-4-yloxy)phenyl)-3-(2-(1-methyl-1H-pyrazol-4-yl)-5-(trifluoromethyl)pyridin-3-yl)urea]	< 100	< 1000	< 100	< 100
Cn1cc(-c2cc(Oc3ccc(NC(=O)Nc4cnn(C(C)(C)C)c4C(F)(F)F)c(F)c3)ccn2)cn1 [Example 9, 1-(1-tert-butyl-5-(trifluoromethyl)-1H-pyrazol-4-yl)-3-(2-fluoro-4-(2-(1-methyl-1H-pyrazol-4-yl)pyridin-4-yloxy)phenyl)urea]	< 100000	< 10000	< 100	< 1000
1-(2-fluoro-4-(2-(1-methyl-1H-pyrazol-4-yl)pyridin-4-yloxy)phenyl)-3-(3-(1-methylcyclopentyl)isoxazol-5-yl)urea [Example 14]	< 100	< 1000	< 100	< 100
Cn1cc(-c2cc(Oc3ccc(NC(=O)Nc4cnc(C(C)(C)C)nc4N4CCOCC4)c(F)c3)ccn2)cn1 [Example 41, 1-(2-tert-butyl-4-morpholinopyrimidin-5-yl)-3-(2-fluoro-4-(2-(1-methyl-1H-pyrazol-4-yl)pyridin-4-yloxy)phenyl)urea]	< 100000	< 100000	< 1000	< 1000
Cn1cc(-c2cc(Oc3ccc(NC(=O)Nc4nnc(C(C)(C)C)s4)c(F)c3)ccn2)cn1 [Example 11, 1-(5-tert-butyl-1,3,4-thiadiazol-2-yl)-3-(2-fluoro-4-(2-(1-methyl-1H-pyrazol-4-yl)pyridin-4-yloxy)phenyl)urea]	< 100	< 10000	< 100	< 100
Cn1cc(-c2cc(Oc3ccc(NC(=O)Nc4cc(C(F)(F)F)c[nH]c4=O)c(F)c3)ccn2)cn1 [Example 27, 1-(2-fluoro-4-(2-(1-methyl-1H-pyrazol-4-yl)pyridin-4-yloxy)phenyl)-3-(2-oxo-5-(trifluoromethyl)-1,2-dihydropyridin-3-yl)urea]	< 100	< 1000	< 100	< 100
Cn1cc(-c2cc(Oc3ccc(NC(=O)Nc4cncc(C(F)(F)F)c4)cc3)ccn2)cn1 [Example 6, 1-(4-(2-(1-methyl-1H-pyrazol-4-yl)pyridin-4-yloxy)phenyl)-3-(5-(trifluoromethyl)pyridin-3-yl)urea]	< 100	< 10000	< 100	< 100
Cn1cc(-c2cc(Oc3ccc(NC(=O)Nc4cnn(C(C)(C)C)c4)c(F)c3)ccn2)cn1 [Example 5, 1-(1-t-butyl-1H-pyrazol-4-yl)-3-(2-fluoro-4-(2-(1-methyl-1H-pyrazol-4-yl)pyridin-4-yloxy)phenyl)urea]	< 100	< 10000	< 100	< 100
